According to US20060111335A1, “Photoactivated anti-viral and anti-cancer agent” (priority 2002, published 2006):
Read-outs that look alike come from different tables or passages of the source.

Key:
Calf thymus DNA = assay: Dark association with DNA, UV-Visible titration (Example XI); format: binding; settings: 50 mM pH 7 I=0.15 sodium phosphate buffer (physiological condition)
Experimental: Preparation of DNA solution. Calf thymus DNA (Sigma) was dissolved in 50 mM, pH 7, I=0.15 sodium phosphate buffer (Physiological condition) and sonicated. The purity of the DNA was checked by monitoring the absorption spectrum and the ratio of the absorbance at 260 to 280 nm. The ratio were within the acceptable purity margin (1.8±0.1). The concentration of the Calf thymus DNA per phosphate was determined spectrophotometrically: ε253=6600 for calf thymus DNA^1. The concentration was 2.13 E-3 M.
The resulting solution was diluted 4 times with phosphate buffer. […] 0, 50 μL, 150 μL, 200 μL, 300 μL, 350 μL and 500 μL of DNA solutions were added, mixed well with a small disposable needle, and spectra were recorded again. The concentration of the species, the apparent absorbance at 337 nm, and the apparent extinction coefficients at 337 nm were determined from the absorptions spectra and tabulated in Table 1.
The apparent binding constant, Kapp was determined from the plot of [DNA]/Δεapp versus [DNA], where Δεapp=εf−εapp and Δε=εf−εb^2, where εb and εf correspond to the extinction coefficient of the DNA-bound form of the OCTBP derivatives and the extinction coefficient of the DNA-unbound OCTBP derivatives, respectively. […] Cb=(εfCtotal−Aobserved)/Δε The concentration of the DNA-unbound OCTBP derivatives (Cf) can be determined by Cf=Ctotal−Cb […]

φX-174 plasmid DNA = assay: Photonicking of φX-174 plasmid DNA, gel electrophoresis; format: biochemical; settings: Example IX, dark and upon exposure to light
Experimental: Photolysis with φX-174 Plasmid DNA. Metal complex solutions (with or without quenchers) were saturated with oxygen or argon prior to irradiation. The solutions were further degassed after being mixed with the plasmid. The final solution concentrations were: DPPZPHEN ([…]), φX-174 plasmid DNA (205 μM in base pairs), superoxide dismutase (25 μg/mL), 2-propanol (0.5 M), mannitol (6.25 mM), histidine (8 mM).
Experiments were conducted as described in Example X to evaluate the amount photonicking that occurred in the dark and upon exposure to light for 37TMBP, 56TMBP, OCTBP, BISNMe2, TMOBP, TIOBP, TPBP, BISTAP and BISDPPZ.

M109 cells = assay: Phototoxicity to M109 tumor cells, MTT assay; format: cell-based, mouse; settings: OCTBP, 55 μM (FIG. 10)
Experimental: (§1) Photolysis with Tumor Cells.
Procedures for cell maintenance, cell plating, drug incubation, photolysis and MTT assay are all same as that used for the KB cell lines. A small amount of dark toxicity was observed (about 15%). A considerable amount of killing occurs with light alone after 30 and 40 minutes of irradiation (FIG. 10).

GN4 cells = assay: Phototoxicity to GN4 tumor cells, MTT assay; format: cell-based, canine
Experimental: as §1
Media was decanted from the flask. […] Trypsin-EDTA was then decanted and the flask was incubated at 37° C. for 8 minutes. […] Released cells were suspended in 5 mL of media and shaken well. […] The remaining cells were discarded.
Cells were plated, incubated with the drug, and photolysis was conducted as for the KB cell lines.

cell membrane = assay: Cell uptake / passage through the cell membrane
Experimental: OCTBP uptake by KB cells. 11 mg of OCTBP was dissolved in 40 mL of PBS buffer. The solution was vortex stirred for 5 minutes to completely dissolve the solid. The solution was sterile filtered through a 0.2μ nylon syringe filter. The concentration of the solution was determined by measuring the UV absorption at 353 nm (ε353nm=1565 M^−1cm^−1).
Once the cells were 75% confluent media was decanted from the flasks and 8 mL of drug solutions were added to three flasks and 8 mL of PBS buffer solution was added to the control flask. The flasks were incubated at 37° C. for 15, 30 and 45 minutes. Control flask was incubated for 45 minutes. When the flasks were removed, they were washed with 6×10 mL of PBS buffer solution. All the liquid was carefully decanted from the flasks. 1 mL of lysing buffer (1% triton X-100) was added to each of the four flasks. The walls of the flasks were rinsed using disposable pipettes. Once all the contents of the flasks were placed into a 1.5 mL disposable centrifuge tubes (each flask yielded ˜1.2 mL), the tubes were centrifuged at 6000 rpm and at 4° C. for 30 minutes on the Fisher Model 59V high-speed centrifuge. BCA Assay was done to establish the amount of cells in each flask.
Rh content of each flask was determined using an inductively coupled plasma (ICP) instrument (AtomScan16, Thermo Elemental, Franklin, Mass.). From each centrifuge tube 1 mL was pipetted and 370 μL of concentrated HCl was added to form a 10% solution. The samples were heated in a hot water bath at 70° C. for 30 minutes. The samples were centrifuged again and the supernatant liquid was diluted to 8 mL by adding nano-pure water. The samples were analyzed for Rh content by ICP.

[1] = Reversed phase HPLC elution on C8 column as measure of hydrophobicity; format: physicochemical; settings: 45% acetonitrile in 100 mM ammonium acetate pH 5.4
Experimental: Reversed phase high performance liquid chromatography (RP-HPLC) was carried out on C8 columns. Compounds were tested using 20%, 30% and 45% acetonitrile in 100 mM ammonium acetate at pH 5.4 for elution on a C8 column, with the intention of achieving an elution time of about 15 minutes. It was expected that the more hydrophobic a compound, the higher the acetonitrile content one would need for the eluent.

[2] = Photodestruction (photoaquation) with visible light >500 nm, HPLC analysis; format: physicochemical; settings: 0.1 mM aqueous, 8 hours under argon
Experimental: Aqueous solutions (3 mL, 0.1 mM) of the Rh complexes were irradiated for 8 hours under argon using a 450 W Hanovia medium pressure mercury lamp filtered through a uranium yellow glass (cut-off<330 nm) and a 1.5 cm 0.5% (w/v) aqueous solution of K2Cr2O7 (0% transmittance≦500 nm). Photodestruction of the metal complexes was followed by HPLC analysis.

[3] = Dark thermal aquation and thermal base hydrolysis; format: physicochemical; settings: 80° C. with 10% NaOH
Source text: A dissociation/addition mechanism is generally accepted as responsible for the substitution chemistry associated with a hexacoordinated Rh(III) ligand field triplet (Weiland et al., Inorg. Chem., 25:4893 (1986)). The dissociation step is due to the promotion of an electron from the t2g orbital to the eg orbital, which leads to significant weakening of the metal ligand bonds. (Hipps et al., Inorg. Chem., 13:1544 (1974)).

[4] = test system: calf thymus DNA than BSA protein; assay: In vitro kinetic and thermodynamic studies of affinity, DNA versus protein; format: binding
cells = assay: Phototoxicity, summary statement of Example XII; format: cell-based
KB cells = assay: Phototoxicity to KB tumor cells, MTT assay
Experimental: Photolysis with Tumor Cells. […] At the beginning of an experiment media was removed from all plates and the cells were washed with 1 mL of PBS or Hank's salt solution. Drug solution (2 mL) or buffer solution (2 mL) was added to each dish. […] Cells were incubated, with or without metal complex, for 4 hours. After incubation, the solutions were removed from the dishes and the dishes were washed with 1 mL of PBS or Hank's salt solution. A fresh 1 mL of PBS or Hank's salt solution was added to each dish and these were placed on a turntable that sat on the top part of the photolysis chamber. […] The plates were then incubated for 40-48 hours before a determination of the extent of cell toxicity by MTT assay.
Cells were incubated in 75 cm^2 culture flasks. They were grown in Dulbecco's Modified Eagles Medium (D-MEM) supplemented with 10% heat inactivated fetal bovine serum (FBS), 1% L-glutamine-penicillin-streptomycin and 1% amphotericin-B. When cells were not plated for use in an experiment, they were transferred when they were 75-100% confluent using the following procedure. Media was decanted from the flask. Cells were rinsed 1-2 times with 10 mL of Hank's Balanced salt solution. […] Trypsin-EDTA was then decanted and the cells were released from the wall of the flask by tapping the side of the flask. Released cells were suspended in 5 mL media and 1 mL of this suspension was placed in a new culture flasks containing 20 mL of fresh media. The remaining cells were discarded. A culture flask can be used for 3 transfers.
Usually 16-24 hours before a photolysis experiment, cells were plated in 35×10 mm tissue culture dishes and incubated at 37° C. until the experiment was begun. Cells were about 75-100% confluent in the 75 cm^2 culture flask when plated. After being washed and released from the flask as described above, cells were suspended in 40 mL media and 1.5 mL of suspension was placed in each dish.
The concentration of the solution was 70 μM.
The cell dishes were incubated with drug or Hanks balanced salt solution (1 mL) for 3 hours. After incubation, solutions were decanted from the plates and 1 mL of Hank's Balanced salt solution were placed in each. […] Following photolysis, Hank's Balanced salt solutions were decanted and 1 mL of fresh media was placed in each plate.
Plates were incubated for 65 hours and then analyzed for cell survival by MT assay. 5 mg/mL MTT solution in water was prepared and 100 μL of this solution was added to each plate and the plates were incubated for 1.5 hours. Purple crystals formed from live cells. Media was gently removed from plates using a Pasteur pipette, the purple crystals that remained at the bottom of the dish were dissolved in 6 mL of isopropanol.
Phototoxicity studies with long wavelength light (>400 nm). […]

DNA = settings: dark; cited from earlier work
Sindbis virus = settings: cited from earlier work
bacteriophage φ6 = settings: cited from earlier work
[5] = cited from earlier work
nucleic acid = settings: cited from earlier work
cell = settings: cited from earlier work
protein = settings: cited from earlier work

Structure (SMILES): CC1=C[N]2c3c4c(ccc3=C1C)=C(C)C(C)=C[N]4[Rh+]21([Cl])([Cl])[N]2C=C(C)C(C)=c3ccc4c(c32)[N]1C=C(C)C=4C.[Cl-] [OCTBP, cis-dichlorobis(3,4,7,8-tetramethyl-1,10-phenanthroline) rhodium(III) chloride]
- apparent (intrinsic) binding constant Kapp (Calf thymus DNA): 4.25 E3 M
- photonicking of φX-174 plasmid DNA (φX-174 plasmid DNA): Only TPBP, BISTAP, BISDPPZ and BISDPPHEN complexes were found to photonick
- dark toxicity (M109 cells): about 15%
- photo-cell death (GN4 cells; OCTBP 55 μM, 311 nm): no photo-cell death occurred
- cell death (GN4 cells; OCTBP 63 μM, >400 nm light, 60 minutes): 25%
- photo-initiated cell death (GN4 cells; OCTBP 75 μM, 311 nm, 40 minutes): about 20%
- ability to pass through the cell membrane (cell membrane): able to pass through the cell membrane
- elution time [1]: about 15 minutes
- photodestruction [2]: 9.3 % loss
- thermal hydrolysis, rank order [3]: OCTBP≅37TMBP>BISPHEN
- affinity toward calf thymus DNA compared with BSA protein [4]: greater affinity toward calf thymus DNA than BSA protein
- phototoxicity (cells): are phototoxic
- cell death (KB cells; OCTBP 55 μM, >400 nm light, 60 minutes): 40%
- dark toxicity (KB cells; OCTBP 70 μM): dark toxicity wasn't observed
- dark toxicity (KB cells; OCTBP 80 μM): considerable amount of dark toxicity

Structure (SMILES): [Cl-].[Cl][Rh+]12([Cl])([N]=c3c(c4ccccc4c4ccccc34)=[N]1)[N]1C=CC=c3ccc4c(c31)[N]2C=CC=4 [PHENPHI, cis-dichloro(1,10-phenanthroline)(9,10-phenathrenequinone diimine)rhodium(III) chloride]
- Keq of dark association with DNA (DNA): 37000 M⁻¹
- phototoxicity / virucidal activity against Sindbis virus (Sindbis virus): potent virucidal activity
- activity against bacteriophage φ6 (bacteriophage φ6): potent virucidal activity
- stability ([5]; 37° C., phosphate-buffered saline (PBS) pH 7): decomposing
- ligand exchange ([5]; acetate buffer pH 5): readily substitutes acetate for chloride ligand
- stability ([5]; room temperature, Tris buffer pH 7): decomposing
- photonuclease activity (nucleic acid): exhibited photonuclease activity
- covalent binding to nucleic acid upon irradiation (nucleic acid; irradiated with light): covalently binds to DNA
- photoinduced cell death (cell): substantial photoinduced cell death
- penetration of the cell membrane (cell; without liposomes): does not require liposomes to penetrate the cell membrane
- binding affinity for protein (protein): substantial binding affinity for protein
